# Organism: Rattus norvegicus
# Assay: DrugMatrix - Regimen: Daily Repeat
# Format: toxicity, organism-based, Sprague-Dawley
# Design: regimen Daily Repeat, gender Male, age 6-8 weeks
# Conditions: in vivo, sc, route subcutaneous, […]; for ABSOLUTE BASOPHIL / ABSOLUTE EOSINOPHIL / ABSOLUTE LYMPHOCYTE / ABSOLUTE MONOCYTE / ABSOLUTE SEGMENTED NEUTROPHIL / BASOPHIL / EOSINOPHIL / ERYTHROCYTE COUNT / HEMATOCRIT / HEMOGLOBIN / LEUKOCYTE COUNT / LYMPHOCYTE / MEAN CORPUSCULAR HEMOGLOBIN / MEAN CORPUSCULAR HEMOGLOBIN CONCENTRATION / MEAN CORPUSCULAR VOLUME / MONOCYTE / NEUTROPHIL / NUCLEATED RED BLOOD CELLS / PLATELET COUNT: tissue Blood; for ALANINE AMINOTRANSFERASE / ALBUMIN / ALKALINE PHOSPHATASE / ASPARTATE AMINOTRANSFERASE / BLOOD UREA NITROGEN / CARBON DIOXIDE / CHLORIDE / CHOLESTEROL / CREATINE PHOSPHOKINASE / CREATININE / GLUCOSE / LACTATE DEHYDROGENASE / LIPASE / PHOSPHORUS / POTASSIUM / SODIUM / TOTAL BILIRUBIN / TOTAL PROTEIN / URIC ACID: tissue Plasma
# [1] = 0 mg/kg, 72 h, dose level Control, time 3 day
# [2] = 0 mg/kg, 120 h, dose level Control, time 5 day
# [3] = 150 mg/kg, 72 h, dose level High, time 3 day
structure (smiles),measurement,setting,value
CN(Cc1ccc(C(C)(C)C)cc1)Cc1cccc2ccccc12 [BUTENAFINE],ABSOLUTE BASOPHIL,[1],0 CELLS/uL
same,ABSOLUTE EOSINOPHIL,[1],0 CELLS/uL
same,ABSOLUTE LYMPHOCYTE,[1],10887 CELLS/uL
same,ABSOLUTE MONOCYTE,[1],56 CELLS/uL
same,ABSOLUTE SEGMENTED NEUTROPHIL,[1],1057 CELLS/uL
same,BASOPHIL,[1],0%
same,EOSINOPHIL,[1],0%
same,ERYTHROCYTE COUNT,[1],5.31 x10E6/uL
same,HEMATOCRIT,[1],33.78%
same,HEMOGLOBIN,[1],13.4 G/DL
same,LEUKOCYTE COUNT,[1],12 x10E3/uL
same,LYMPHOCYTE,[1],91.17%
same,MEAN CORPUSCULAR HEMOGLOBIN,[1],25.25 pg
same,MEAN CORPUSCULAR HEMOGLOBIN CONCENTRATION,[1],39.65 G/DL
same,MEAN CORPUSCULAR VOLUME,[1],63.65 fL
same,MONOCYTE,[1],0.5%
same,NEUTROPHIL,[1],8.33%
same,NUCLEATED RED BLOOD CELLS,[1],0 /100WBC
same,PLATELET COUNT,[1],1142 x10E3/uL
same,ALANINE AMINOTRANSFERASE,[1],57.17 u/L
same,ALBUMIN,[1],4.28 G/DL
same,ALKALINE PHOSPHATASE,[1],425.83 u/L
same,ASPARTATE AMINOTRANSFERASE,[1],93.83 u/L
same,BLOOD UREA NITROGEN,[1],14.17 mg/dL
same,CARBON DIOXIDE,[1],33.5 mmol/L
same,CHLORIDE,[1],100 MEQ/L
same,CHOLESTEROL,[1],70.33 mg/dL
same,CREATINE PHOSPHOKINASE,[1],438.67 u/L
same,CREATININE,[1],0.19 mg/dL
same,GLUCOSE,[1],138.5 mg/dL
same,LACTATE DEHYDROGENASE,[1],190.17 u/L
same,LIPASE,[1],9.83 u/L
same,PHOSPHORUS,[1],11.05 mg/dL
same,POTASSIUM,[1],6.59 MEQ/L
same,SODIUM,[1],143.58 MEQ/L
same,TOTAL BILIRUBIN,[1],0.22 mg/dL
same,TOTAL PROTEIN,[1],6.15 G/DL
same,URIC ACID,[1],1.3 mg/dL
same,ABSOLUTE BASOPHIL,[2],0 CELLS/uL
same,ABSOLUTE EOSINOPHIL,[2],91.17 CELLS/uL
same,ABSOLUTE LYMPHOCYTE,[2],11847.67 CELLS/uL
same,ABSOLUTE MONOCYTE,[2],172.83 CELLS/uL
same,ABSOLUTE SEGMENTED NEUTROPHIL,[2],1105 CELLS/uL
same,BASOPHIL,[2],0%
same,EOSINOPHIL,[2],0.67%
same,ERYTHROCYTE COUNT,[2],5.35 x10E6/uL
same,HEMATOCRIT,[2],33.65%
same,HEMOGLOBIN,[2],13.42 G/DL
same,LEUKOCYTE COUNT,[2],13.22 x10E3/uL
same,LYMPHOCYTE,[2],89.83%
same,MEAN CORPUSCULAR HEMOGLOBIN,[2],25.12 pg
same,MEAN CORPUSCULAR HEMOGLOBIN CONCENTRATION,[2],39.9 G/DL
same,MEAN CORPUSCULAR VOLUME,[2],63 fL
same,MONOCYTE,[2],1.33%
same,NEUTROPHIL,[2],8.17%
same,NUCLEATED RED BLOOD CELLS,[2],0 /100WBC
same,PLATELET COUNT,[2],1347.83 x10E3/uL
same,ALANINE AMINOTRANSFERASE,[2],50 u/L
same,ALBUMIN,[2],4.1 G/DL
same,ALKALINE PHOSPHATASE,[2],329.17 u/L
same,ASPARTATE AMINOTRANSFERASE,[2],77.17 u/L
same,BLOOD UREA NITROGEN,[2],16.83 mg/dL
same,CARBON DIOXIDE,[2],34.83 mmol/L
same,CHLORIDE,[2],99.83 MEQ/L
same,CHOLESTEROL,[2],75.67 mg/dL
same,CREATINE PHOSPHOKINASE,[2],295.83 u/L
same,CREATININE,[2],0.18 mg/dL
same,GLUCOSE,[2],156.33 mg/dL
same,LACTATE DEHYDROGENASE,[2],166.83 u/L
same,LIPASE,[2],9.83 u/L
same,PHOSPHORUS,[2],12.18 mg/dL
same,POTASSIUM,[2],6.69 MEQ/L
same,SODIUM,[2],143.97 MEQ/L
same,TOTAL BILIRUBIN,[2],0.22 mg/dL
same,TOTAL PROTEIN,[2],6.05 G/DL
same,URIC ACID,[2],1.6 mg/dL
same,ABSOLUTE BASOPHIL,[3],0 CELLS/uL
same,ABSOLUTE EOSINOPHIL,[3],0 CELLS/uL
same,ABSOLUTE LYMPHOCYTE,[3],11405 CELLS/uL
same,ABSOLUTE MONOCYTE,[3],88.33 CELLS/uL
same,ABSOLUTE SEGMENTED NEUTROPHIL,[3],1473.33 CELLS/uL
same,BASOPHIL,[3],0%
same,EOSINOPHIL,[3],0%
same,ERYTHROCYTE COUNT,[3],5.31 x10E6/uL
same,HEMATOCRIT,[3],33.8%
same,HEMOGLOBIN,[3],13.6 G/DL
same,LEUKOCYTE COUNT,[3],12.97 x10E3/uL
same,LYMPHOCYTE,[3],88%
same,MEAN CORPUSCULAR HEMOGLOBIN,[3],25.63 pg
same,MEAN CORPUSCULAR HEMOGLOBIN CONCENTRATION,[3],40.27 G/DL
same,MEAN CORPUSCULAR VOLUME,[3],63.67 fL
same,MONOCYTE,[3],0.67%
same,NEUTROPHIL,[3],11.33%
same,NUCLEATED RED BLOOD CELLS,[3],0 /100WBC
same,PLATELET COUNT,[3],1396 x10E3/uL
same,ALANINE AMINOTRANSFERASE,[3],55 u/L
same,ALBUMIN,[3],3.97 G/DL
same,ALKALINE PHOSPHATASE,[3],429.67 u/L
same,ASPARTATE AMINOTRANSFERASE,[3],77.33 u/L
same,BLOOD UREA NITROGEN,[3],15.67 mg/dL
same,CARBON DIOXIDE,[3],31.67 mmol/L
same,CHLORIDE,[3],101.67 MEQ/L
same,CHOLESTEROL,[3],73 mg/dL
same,CREATINE PHOSPHOKINASE,[3],247 u/L
same,CREATININE,[3],0.17 mg/dL
same,GLUCOSE,[3],147.33 mg/dL
same,LACTATE DEHYDROGENASE,[3],229.67 u/L
same,LIPASE,[3],9 u/L
same,PHOSPHORUS,[3],13.73 mg/dL
same,POTASSIUM,[3],6.88 MEQ/L
same,SODIUM,[3],145.7 MEQ/L
same,TOTAL BILIRUBIN,[3],0.2 mg/dL
same,TOTAL PROTEIN,[3],5.73 G/DL
same,URIC ACID,[3],1.4 mg/dL

# Source: ChEMBL document CHEMBL3885881, “DrugMatrix”
